What was measured:
Aβ plaques = target: T1, Aβ plaques (Homo sapiens, UniProt P05067); assay: Fluorescent compound staining on human AD brain sections (β-amyloid IHC double labeling); assay type: binding; details: 100 uM compound; for Brain Section Staining: Ab (amyloid): qualitative rating + to ++++ or words
T1 construct: Native forms of tau (various isoforms, hyperphosphorylated) and amyloid aggregates are present in brain sections; from tissue; host or cells: human AD brain, frozen frontal lobe sections
Excerpt: (§1) Native forms of tau (various isoforms, hyperphosphorylated) and amyloid aggregates are present in brain sections and therefore preferred for compound testing. Using the self-fluorescence of a test compound can give an indication of whether the compound binds to tau tangles/PHFs and/or amyloid plaques. This is further confirmed by immunostaining with Aβ and tau antibodies and overlaying the images. […] However, it is possible to “rate” the signal strength qualitatively and distinguish compounds that show binding to these aggregates.
(§2) In one of the embodiments of the present invention, the self-fluorescence of the compound of formula (I) is used to determine whether the compound binds to tau/amyloid in the brain sections and to give it a qualitative rating. The next step is to proceed to the autoradiography using different brain types for further evaluation and quantitation.
(§3) Tau fluorescent compounds staining on human brain sections (Double or triple labeled with tau and β-amyloid Immunohistochemistry (IHC))
(§4) Serial sections (6 μm thick) from OCT-embedded frozen blocks of front lobe were used for staining (OCT—optimal cutting temperature). After fixation and quenching of autofluorescence, tissue sections were incubated with in 100 μM of tau compound in 50% ethanol PBS for 60 min. Then sections were dipped briefly into water, rinsed in PBS, blocked with 5% normal horse serum in PBS for 1 hour at room temperature. After blocking, the tissue was incubated with tau or β-amyloid primary antibody at 4° C. overnight in a humid chamber. Next day, the sections were washed with PBS and then incubated with secondary antibody for 1 hour.

AD brain sections = assay: Fluorescent compound staining on human AD brain sections (self-fluorescence, overall binding); details: for Brain Section Staining: fluorescence: Table 1 quinolines, 100 uM compound; for binding of fluorescent compound to AD brain sections confirmed by immunostaining with tau or Aβ antibodies: figure legends, double labeling at 100 uM
Excerpt: as §1, §2, §3, §4

tau aggregates = assay: Fluorescent compound staining on human AD brain sections (tau IHC double labeling); assay type: binding; details: 100 uM compound, qualitative rating + to ++++ or words
Excerpt: as §1, §2, §3, §4

T1 sequence (P05067 672-713 limits assumed): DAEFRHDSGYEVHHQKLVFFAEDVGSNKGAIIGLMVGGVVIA

Row | Structure (SMILES) | Brain Section Staining: Ab (amyloid) (Aβ plaques; Table 1 quinolines) | Brain Section Staining: tau (tau aggregates; Table 1 quinolines) | other results
1 | CN(C)CCNc1cc(-c2ccccc2)nc2ccccc12 [Compound T048] | binds to Ab (amyloid) (100 uM) | – | –
2 | c1ccc2nc(-c3ccncc3)ccc2c1 [Compound T123, 2-(Pyridin-4-yl)quinoline] | – | – | Brain Section Staining: fluorescence (AD brain sections): No fluorescence is detected at 100 uM
3 | CN(C)c1ccc(-c2ccc3ccccc3n2)cn1 [Compound T125, N,N-Dimethyl-5-(quinolin-2-yl)pyridin-2-amine] | – | staining shows strong binding to tau | –
4 | COc1ccc2nc(-c3ccc(N(C)C)cc3)ccc2c1 [Compound T139, 4-(6-Methoxyquinolin-2-yl)-N,N-dimethylaniline] | binds to amyloid and Tau | binds to amyloid and Tau | –
5 | CNc1ccc(-c2ccc3cc(OCCF)ccc3n2)cc1.Cl.Cl [Compound T409] | binds to amyloid | – | –
6 | [N-]=[N+]=NCCOCCOCCNc1ccc(-c2ccc3ccccc3n2)cc1 [Compound T412] | not to amyloid | binds to tau | –
7 | Nc1ccc(-c2ccc3ccccc3n2)cc1F [Compound T445, 2-Fluoro-4-(quinolin-2-yl) aniline] | – | binds to Tau | –
8 | CNc1ccc(C#Cc2nc3cc(OC)ccc3s2)cc1F [Compound T448] | – | – | Brain Section Staining: Ab (amyloid) (Aβ plaques; Table 2 acetylenes): binds to Ab
9 | FCCCNc1ccc(C#Cc2ccc3ccccc3n2)cc1 [Compound T454, N-(3-Fluoropropyl)-4-(quinolin-2-ylethynyl)aniline] | binds to Ab | – | Brain Section Staining: Ab (amyloid) (Aβ plaques; Table 2 acetylenes): binds to Ab
10 | Fc1ccc(-c2ccc3ccccc3n2)cn1 [Compound T455, 2-(6-Fluoropyridin-3-yl)quinoline] | – | – | Brain Section Staining: fluorescence (AD brain sections): No fluorescence
11 | FCCCNc1ccc(C#Cc2nc3ccccc3[nH]2)cc1 [Compound T465, 4-((1H-Benzo[d]imidazol-2-yl)ethynyl)-N-(3-fluoropropyl)aniline] | – | – | Brain Section Staining: tau (tau aggregates; Table 2 acetylenes): binds to tau and Ab; Brain Section Staining: Ab (amyloid) (Aβ plaques; Table 2 acetylenes): binds to tau and Ab
12 | CNc1ccc(-c2cc(F)c3ccccc3n2)cc1 [Compound T466, 4-(4-fluoroquinolin-2-yl)-N-methylaniline] | binds to tau and amyloid | binds to tau and amyloid | –
13 | COc1ccc2nc(-c3ccc(N)c(F)c3)ccc2c1 [Compound T467, 2-Fluoro-4-(6-methoxyquinolin-2-yl)aniline] | binds to tau and amyloid | binds to tau and amyloid | –
14 | CNc1ccc(-c2ccc3cc(OC)ccc3n2)cc1F.Cl.Cl [Compound T483, 2-Fluoro-4-(6-methoxyquinolin-2-yl)-N-methylaniline dihydrochloride] | – | Mostly binds to Tau | –
15 | Cn1cnc2ccc(-c3cc(F)c4ccccc4n3)cc21 [Compound T485, 4-Fluoro-2-(1-methyl-1H-benzo[d]imidazol-6-yl)quinoline 2,2,2-trifluoroacetate] | weakly binds to Ab | – | –
16 | FCCn1c(C#Cc2ccc3ccccc3n2)nc2ccccc21.O=C(O)C(F)(F)F [Compound T496] | – | – | Brain Section Staining: Ab (amyloid) (Aβ plaques; Table 2 acetylenes): Weakly binds to Ab
17 | COc1ccc2nc(-c3ccc(N4CCN(CCCF)CC4)cc3)ccc2c1 [Compound T499, 2-(4-(4-(3-Fluoropropyl)piperazin-1-yl)phenyl)-6-methoxyquinoline] | – | – | binding of fluorescent compound to AD brain sections confirmed by immunostaining with tau or Aβ antibodies (AD brain sections): binding

Row | Structure (SMILES) | Brain Section Staining: Ab (amyloid) (Aβ plaques; Table 1 quinolines) | Brain Section Staining: tau (tau aggregates; Table 1 quinolines) | other results
18 | CNc1ccc(-c2cc3ccccc3cn2)cc1.Cl [Compound T501, 4-(Isoquinolin-3-yl)-N-methylaniline] | – | – | Brain Section Staining: fluorescence (AD brain sections): No fluorescence
19 | Nc1ccc(-c2ccnc3nc4ccccc4n23)cc1 [Compound T520, 4-(Benzo[4,5]imidazo[1,2-a]pyrimidin-4-yl)aniline] | – | – | binding of fluorescent compound to AD brain sections confirmed by immunostaining with tau or Aβ antibodies (AD brain sections): binding
20 | CNc1ccc(-c2ccn3c(n2)nc2ccccc23)cc1.O=C(O)C(F)(F)F.O=C(O)C(F)(F)F [Compound T522, 4-(Benzo[4,5]imidazo[1,2-a]pyrimidin-2-yl)-N-methylaniline bistrifluoracetate] | – | – | binding of fluorescent compound to AD brain sections confirmed by immunostaining with tau or Aβ antibodies (AD brain sections): total binding
21 | FCCOCCOCCNc1ccc(-c2ccc3ccccc3n2)cn1 [Compound T525, N-(2-(2-(2-Fluoroethoxy)ethoxy)ethyl)-5-(quinolin-2-yl)pyridin-2-amine] | – | – | binding of fluorescent compound to AD brain sections confirmed by immunostaining with tau or Aβ antibodies (AD brain sections): binding
22 | FCCOCCOCCn1c(C#Cc2cnc3[nH]ccc3c2)nc2ccccc21.O=C(O)C(F)(F)F [Compound T527] | – | – | binding of fluorescent compound to AD brain sections confirmed by immunostaining with tau or Aβ antibodies (AD brain sections): binding
23 | CN(C)c1ccc(-c2ccc3cc(O)ccc3n2)cc1 [Compound T531] | – | Binds to Tau | –
24 | FCCOCCOCCOc1ccc2nc(-c3ccc(N4CCOCC4)nc3)ccc2c1 [Compound T539, 4-(5-(6-(2-(2-(2-Fluoroethoxy)ethoxy)ethoxy)quinolin-2-yl)pyridin-2-yl)morpholine] | – | – | binding of fluorescent compound to AD brain sections confirmed by immunostaining with tau or Aβ antibodies (AD brain sections): binding
25 | Cn1c(C#Cc2ccc(NCCCF)cc2)nc2ccccc21 [Compound T540, N-(3-Fluoropropyl)-4-((1-methyl-1H-benzo[d]imidazol-2-yl)ethynyl)aniline] | – | – | binding of fluorescent compound to AD brain sections confirmed by immunostaining with tau or Aβ antibodies (AD brain sections): binding
26 | CNc1ccc(C#Cc2nc3ccccc3n2CCOCCOCCF)cc1.O=C(O)C(F)(F)F [Compound T541] | – | – | binding of fluorescent compound to AD brain sections confirmed by immunostaining with tau or Aβ antibodies (AD brain sections): binding
27 | FCCCNc1ccc(-c2ccn3c(n2)nc2ccccc23)cc1 [Compound T542, 4-(Benzo[4,5]imidazo[1,2-a]pyrimidin-2-yl)-N-(3-fluoropropyl)aniline] | – | – | binding of fluorescent compound to AD brain sections confirmed by immunostaining with tau or Aβ antibodies (AD brain sections): binding
28 | CN(C)c1ccc(-c2ccc(-c3nc4ccccc4n3CCF)cc2)cc1 [Compound T543, 4′-(1-(2-Fluoroethyl)-1H-benzo[d]imidazol-2-yl)-N,N-dimethyl-[1,1′-biphenyl]-4-amine] | – | – | Brain Section Staining: Aβ (Aβ plaques; Table 3 benzimidazoles, qualitative rating 1+ to 4+ / + to +++): no binding; binding of fluorescent compound to AD brain sections confirmed by immunostaining with tau or Aβ antibodies (AD brain sections): binding
29 | FCCCNc1ccc(-c2ccnc3nc4ccccc4n23)cc1 [Compound T544, 4-(Benzo[4,5]imidazo[1,2-a]pyrimidin-4-yl)-N-(3-fluoropropyl)aniline] | – | – | binding of fluorescent compound to AD brain sections confirmed by immunostaining with tau or Aβ antibodies (AD brain sections): binding
30 | FCCOCCOCCOc1ccc2nc(-c3ccc(N4CCOCC4)cc3)ccc2c1 [Compound T549, 4-(4-(6-(2-(2-(2-Fluoroethoxy)ethoxy)ethoxy)quinolin-2-yl)phenyl)morpholine] | – | Binds to Tau | –
31 | CN1CCN(c2ccc(-c3ccc4cc(OCCOCCOCCF)ccc4n3)cc2)CC1 [Compound T550, 6-(2-(2-(2-Fluoroethoxy)ethoxy)ethoxy)-2-(4-(4-methylpiperazin-1-yl)phenyl)quinoline] | – | Binds to Tau | –
32 | CN1CCN(c2ccc(-c3cc(F)c4ccccc4n3)cc2)CC1 [Compound T559] | – | – | Brain Section Staining: fluorescence (AD brain sections): No fluorescence
33 | Fc1ccc(C#Cc2ccc3scnc3c2)cn1 [T114/ W313] | – | – | Brain Section Staining: tau (tau aggregates; Table 2 acetylenes): stains amyloid and tau; Brain Section Staining: Ab (amyloid) (Aβ plaques; Table 2 acetylenes): stains amyloid and tau
34 | CNc1ccc(C#Cc2nc3ccc(O)cc3s2)cc1F [T118/ W366, 2-((3-fluoro-4-(methylamino)phenyl)ethynyl)benzo[d]thiazol-6-ol] | – | – | Brain Section Staining: Ab (amyloid) (Aβ plaques; Table 2 acetylenes): binds to Ab

Further lines, with some results ahead:

Row | Brain Section Staining: Ab (amyloid) (Aβ plaques; Table 1 quinolines) | Structure (SMILES) | Brain Section Staining: tau (tau aggregates; Table 1 quinolines) | other results
35 | weakly binds to Ab | Cl.Cl.FCCNc1ccc(-c2ccc3ccccc3n2)cc1 [Compound T411, N-(2-Fluoroethyl)-4-(quinolin-2-yl)aniline dihydrochloride] | binds to tau | –
36 | binds to Ab | CN(C)c1ccc(/C=C/c2ccc3cc(F)ccc3n2)cc1 [Compound T429] | – | –
37 | binds to Tau and Ab | FCCOCCOCCNc1ccc(-c2ccc3ccccc3n2)cc1 [Compound T442] | binds to Tau and Ab | –
38 | binds to Ab | Cn1ccc2cc(-c3ccc4ccccc4n3)ccc21 [Compound T453, 2-(1-Methyl-1H-indol-5-yl)quinoline] | – | –
39 | binds to amyloid and tau | CNc1ccc(-c2ccc3ccccc3n2)cc1F [Compound T458] | binds to amyloid and tau | –
40 | binds to Ab mostly | CN(C)c1ccc(/C=C/c2cnc3ccccc3n2)cc1 [Compound T475] | – | –
41 | binds to Ab mostly | CNc1ccc(-c2cnc3ccccc3c2)cc1 [Compound T477, N-Methyl-4-(quinolin-3-yl)aniline] | – | –
42 | binds to Tau and Ab | CN(C)c1ccc(-c2cc(F)c3ccccc3n2)cc1 [Compound T484, 4-(4-Fluoroquinolin-2-yl)-N—N-dimethylaniline] | binds to Tau | –

— patent US8691187B2, “Imaging agents for detecting neurological disorders” (Eli Lilly and Company, priority 2009, dated 2014)
